Experimental data: PMC6345161 (Journal of medicinal chemistry, 2018)

Tests used:
MRSA (ATCC BAA-44) = assay: MRSA proliferation assay; format: cell-based, Staphylococcus aureus
S. aureus (ATCC 25923) = assay: S. aureus proliferation assay; format: cell-based, Staphylococcus aureus
E. coli GroEL = E. coli GroEL (Escherichia coli, UniProt P0A6F5); assay: Isothermal titration calorimetry binding to GroEL; conditions: for T∆S: 20°C (293.15 K); for Stoichiometry n, GroELmonomer : Molecule: single-site binding model; for ∆G: calculated with Gibbs equation at 20°C
[1] = system: MRSA strain (ATCC BAA-44); assay: 12-day serial passage MRSA resistance assay; format: cell-based, Staphylococcus aureus; conditions: for MRSA resistance generation: 12 passages over 12 days
native rhodanese = target: T1, native rhodanese (Bos taurus, UniProt P00586); assay: Native Rho enzymatic reporter counter-screen; format: biochemical
T1 sequence (P00586 2-297 limits assumed): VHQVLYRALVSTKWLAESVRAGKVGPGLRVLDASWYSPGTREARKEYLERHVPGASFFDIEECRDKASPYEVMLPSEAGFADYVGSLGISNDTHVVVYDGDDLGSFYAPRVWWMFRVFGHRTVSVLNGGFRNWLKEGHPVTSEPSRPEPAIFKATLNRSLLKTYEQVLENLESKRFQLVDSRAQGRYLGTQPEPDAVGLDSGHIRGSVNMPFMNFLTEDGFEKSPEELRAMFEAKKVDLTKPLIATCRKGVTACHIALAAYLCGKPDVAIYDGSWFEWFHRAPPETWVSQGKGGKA

[2] = target: T2, native malate dehydrogenase (Sus scrofa, UniProt P00346); assay: Native MDH enzymatic reporter counter-screen; format: biochemical
T2 sequence (P00346 25-338): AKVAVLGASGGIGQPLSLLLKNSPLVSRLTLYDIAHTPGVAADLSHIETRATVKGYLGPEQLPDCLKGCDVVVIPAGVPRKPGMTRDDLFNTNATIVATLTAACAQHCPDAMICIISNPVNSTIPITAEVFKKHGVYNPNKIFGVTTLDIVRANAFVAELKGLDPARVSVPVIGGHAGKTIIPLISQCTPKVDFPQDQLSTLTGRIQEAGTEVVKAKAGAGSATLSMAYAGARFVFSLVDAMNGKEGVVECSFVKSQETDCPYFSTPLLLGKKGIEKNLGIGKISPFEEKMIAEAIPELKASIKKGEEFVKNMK

ESKAPE pathogens = conditions: cited from earlier work

E. coli GroEL, sequence (P0A6F5 2-548): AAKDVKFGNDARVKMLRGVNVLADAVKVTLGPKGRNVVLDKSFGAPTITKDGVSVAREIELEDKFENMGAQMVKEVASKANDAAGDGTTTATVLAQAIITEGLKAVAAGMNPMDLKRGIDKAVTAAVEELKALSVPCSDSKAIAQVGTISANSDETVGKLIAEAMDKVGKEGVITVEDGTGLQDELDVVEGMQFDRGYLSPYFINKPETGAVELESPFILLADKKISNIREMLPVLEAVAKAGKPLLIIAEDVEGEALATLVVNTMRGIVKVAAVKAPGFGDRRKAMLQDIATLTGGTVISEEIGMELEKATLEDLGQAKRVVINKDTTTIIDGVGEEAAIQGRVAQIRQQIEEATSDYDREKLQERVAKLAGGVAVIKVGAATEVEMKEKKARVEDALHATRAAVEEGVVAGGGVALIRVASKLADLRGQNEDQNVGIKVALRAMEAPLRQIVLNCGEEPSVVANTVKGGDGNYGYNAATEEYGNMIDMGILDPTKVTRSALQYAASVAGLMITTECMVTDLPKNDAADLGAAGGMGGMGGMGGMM

Structure (SMILES): O=S(=O)(Nc1ccc(-c2nc3cc(NS(=O)(=O)c4ccc(Cl)cc4)ccc3o2)cc1)c1ccc(Cl)cc1 [2c-p]
- inhibition of MRSA proliferation (MRSA (ATCC BAA-44)): most potent and selective inhibitors of MRSA proliferation

Structure (SMILES): NCc1ccc(S(=O)(=O)Nc2ccc3oc(-c4ccc(NS(=O)(=O)c5ccc(Cl)s5)cc4)nc3c2)cc1 [20L]
- inhibition of S. aureus proliferation (S. aureus (ATCC 25923)): only moderately active
- inhibition of MRSA proliferation (MRSA (ATCC BAA-44)): only moderately active
- Stoichiometry n, Molecule : GroELmonomer (E. coli GroEL; ITC, 20°C): 1.67 ± 0.39
- ∆H (E. coli GroEL; ITC, 20°C): -34.7 ± 2.18 kJ/mol
- ∆S (E. coli GroEL; ITC, 20°C): 0.003 ± 0.002 kcal/molK
- T∆S (E. coli GroEL; ITC): 3.51 ± 2.3 kJ/mol
- Stoichiometry n, GroELmonomer : Molecule (E. coli GroEL; ITC, 20°C): 0.6 ± 0.14
- Stoichiometry n, Molecule : GroELoligomer (E. coli GroEL; ITC, 20°C, molecules per GroEL tetradecamer): 23.3 ± 5.4
- ∆G (E. coli GroEL): -38.2 ± 0.25 kJ/mol

Structure (SMILES): NCc1ccc(S(=O)(=O)Nc2ccc(-c3nc4cc(NS(=O)(=O)c5ccc(Cl)s5)ccc4o3)cc2)cc1 [20R]
- inhibition of S. aureus proliferation (S. aureus (ATCC 25923)): only moderately active
- inhibition of MRSA proliferation (MRSA (ATCC BAA-44)): only moderately active
- Stoichiometry n, Molecule : GroELmonomer (E. coli GroEL; ITC, 20°C): 1.30 ± 0.27
- ∆H (E. coli GroEL; ITC, 20°C): -40.9 ± 3.35 kJ/mol
- ∆S (E. coli GroEL; ITC, 20°C): 0.001 ± 0.003 kcal/molK
- T∆S (E. coli GroEL; ITC): 0.837 ± 3.43 kJ/mol
- Stoichiometry n, GroELmonomer : Molecule (E. coli GroEL; ITC, 20°C): 0.77 ± 0.16
- ∆G (E. coli GroEL): -41.8 ± 1.09 kJ/mol
- MRSA resistance generation [1]: unable to generate resistance

Structure (SMILES): O=[N+]([O-])c1cc(S(=O)(=O)Nc2ccc(-c3nc4cc(NS(=O)(=O)c5ccc(Cl)s5)ccc4o3)cc2)ccc1Cl [28R]
- inhibition of native rhodanese (native rhodanese): only to a minor extent
- inhibition of native malate dehydrogenase [2]: only to a minor extent
- MRSA resistance generation [1]: rapidly developed resistance
- sensitivity of resistant MRSA after culture without inhibitor ([1]; two days without inhibitors (24 h agar, 24 h liquid)): regained sensitivity

Structure (SMILES): Cc1ccc(S(=O)(=O)Nc2ccc(-c3nc4ccc(NS(=O)(=O)c5ccc(C)cc5)cc4[nH]3)cc2)cc1 [compound 1]
- antibacterial effects against ESKAPE pathogens (ESKAPE pathogens): no antibacterial effects

Structure (SMILES): O=S(=O)(Nc1ccc(-c2nc3cc(NS(=O)(=O)c4cccs4)ccc3o2)cc1)c1cccs1 [compound 6]
- inhibition of MRSA proliferation (MRSA (ATCC BAA-44)): most potent and selective inhibitors of MRSA proliferation

Structure (SMILES): CN[C@H](CC(C)C)C(=O)N[C@H]1C(=O)N[C@@H](CC(N)=O)C(=O)N[C@H]2C(=O)N[C@H]3C(=O)N[C@H](C(=O)N[C@H](C(=O)O)c4cc(O)cc(O)c4-c4cc3ccc4O)[C@H](O)c3ccc(c(Cl)c3)Oc3cc2cc(c3O[C@@H]2O[C@H](CO)[C@@H](O)[C@H](O)[C@H]2O[C@H]2C[C@](C)(N)[C@H](O)[C@H](C)O2)Oc2ccc(cc2Cl)[C@H]1O [vancomycin, reference compound]
- MRSA resistance generation [1]: retained sensitivity
